From patent publication US5300513A, “Carbostyril derivatives and pharmaceutical composition containing the same” (Otsuka Pharmaceutical Co., Ltd., priority 1990, dated 1994)
Counter-ions that a name gives are not always drawn. Like-named read-outs stand apart in the source and are kept apart here.

Molecular target: T1, V1 receptor (Rattus norvegicus, UniProt P30560)
T1 construct: Using rat liver plasma membrane preparations; from tissue; host or cells: rat liver plasma membranes
Experiment: V1 receptor binding assay (inhibition of [3H]-Arg-vasopressin binding to rat liver plasma membrane)
Procedure: Using rat liver plasma membrane preparations prepared according to Ichihara's method [cf: Akira Ichihara, J. Bio. […] After incubation, the mixture is filtered three times using the glass filter (GF/F) so as to separate the membrane preparation combined with vasopressin and then washed with the buffer (5 ml). This glass filter is taken out and mixed with liquid scintillation cocktail. The amount of [H]^3 -vasopressin combined with the membrane is measured by liquid scintillation counter and the rate of the inhibitory effect of the test compound is estimated according to the following equation. [formula]

[1] = rat liver plasma membrane, [H]^3-Arg-vasopressin 2×10^-10 M, 37° C., 10 minutes, pH 8.0, read-out: IC50

T1 sequence (P30560 whole entry): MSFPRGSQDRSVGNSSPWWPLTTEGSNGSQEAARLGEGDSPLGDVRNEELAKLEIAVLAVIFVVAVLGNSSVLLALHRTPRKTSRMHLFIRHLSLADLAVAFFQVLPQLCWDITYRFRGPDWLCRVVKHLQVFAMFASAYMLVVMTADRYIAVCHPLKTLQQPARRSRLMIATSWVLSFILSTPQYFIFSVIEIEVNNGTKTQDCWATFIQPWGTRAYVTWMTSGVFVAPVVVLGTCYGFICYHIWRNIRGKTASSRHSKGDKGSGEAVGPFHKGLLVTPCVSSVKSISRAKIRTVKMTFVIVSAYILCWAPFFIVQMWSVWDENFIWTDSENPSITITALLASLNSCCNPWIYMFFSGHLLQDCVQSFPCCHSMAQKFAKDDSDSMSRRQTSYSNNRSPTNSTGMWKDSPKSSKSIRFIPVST

| SMILES | IC50 [1] | IC50 |
| --- | --- | --- |
| CC(=O)NC1CCN(CCCCCOc2ccc(C(=O)N3CCC(N4C(=O)CCc5ccccc54)CC3)cc2)CC1 [Test Compound 9, 1-[1-{4-[5-(4-Acetylamino-1-piperidinyl)-pentyloxy)benzoyl}-4-piperidinyl]-3,4-dihydrocarbostyril] | 36 nM | – |
| CCOc1ccc(C(=O)N2CCC(N3C(=S)CCc4ccccc43)CC2)c(OC)c1 [Test Compound 11, 1-[1-(2-Methoxy-4-ethoxybenzoyl)-4-piperidinyl]-3,4-dihydrothiocarbostyril] | 730 nM | – |
| CCN(CC)CC(CCCCOc1ccc(C(=O)N2CCC(N3C(=O)CCc4ccccc43)CC2)cc1)OC(=O)NC (stereo not drawn) [Test Compound 10, 1-{1-[4-(5-Methylaminocarbonyloxy-6-diethylaminohexyloxy)benzoyl]-4-piperidinyl}-3,4-dihydrocarbostyril] | 38 nM | – |
| O=C(c1ccc(OCCCCCNC23CC4CC(CC(C4)C2)C3)cc1)N1CCC(N2C(=O)CCc3ccccc32)CC1 [Test Compound 2, 1-{1-[4-(5-Tricyclo[3.3.1.1^3.7]decanylaminopentyloxy)benzoyl]-4-piperidinyl}-3,4-dihydrocarbostyril hydrochloride] | 27 nM | – |
| C=CCSc1ccc(C(=O)N2CCC(N3C(=O)CCc4ccccc43)CC2)c(OC)c1 [Test Compound 16, 1-[1-(2-Methoxy-4-allylthiobenzoyl)-4-piperidinyl]-3,4-dihydrocarbostyril] | – | 110 nM |
| O=C(c1ccc(S(=O)(=O)CCCCCN2CCCC2)cc1)N1CCC(N2C(=O)CCc3ccccc32)CC1 [Test Compound 18, 1-[1-{4-[5-(1-Pyrrolidinyl)pentylsulfonyl]-benzoyl}-4-piperidinyl]-3,4-dihydrocarbostyril] | 1900 nM | – |
| O=C(c1ccc(OCCCCCNCC(F)(F)F)cc1)N1CCC(N2C(=O)CCc3ccccc32)CC1 [Test Compound 4, 1-[1-{4-[5-(2,2,2-Trifluoroethylamino)-pentyloxy)benzoyl}-4-piperidinyl}-3,4-dihydrocarbostyril] | 320 nM | – |
| O=C(c1ccc(-c2nc3ccccc3[nH]2)cc1)N1CCC(N2C(=O)CCc3ccccc32)CC1 [Test Compound 19, 1-{1-[4-(2-Benzimidazolyl)benzoyl]-4-piperidinyl}-3,4-dihydrocarbostyril] | 2100 nM | – |
| O=C(c1ccc(-n2ccnc2-c2ccccc2)cc1)N1CCC(N2C(=O)CCc3ccccc32)CC1 [Test Compound 20, 1-{1-[4-(2-Phenyl-1-imidazolyl)benzoyl]-4-piperidinyl}-3,4-dihydrocarbostyril] | 2800 nM | – |
| COc1ccc(-c2nccn2-c2ccc(C(=O)N3CCC(N4C(=O)CCc5ccccc54)CC3)cc2)cc1 [Test Compound 21, 1-[1-{4-[2-(4-Methoxyphenyl)-1-imidazolyl]-benzoyl}-4-piperidinyl]-3,4-dihydrocarbostyril] | 2700 nM | – |
| C=CCNCC(O)CCCCOc1ccc(C(=O)N2CCC(N3C(=O)CCc4ccccc43)CC2)cc1 (stereo not drawn) [Test Compound 6, 1-{1-[4-(5-Hydroxy-6-allylaminohexyloxy)benzoyl]-4-piperidinyl}-3,4-dihydrocarbostyril] | 140 nM | – |
| Nc1ccccc1Sc1nccn1-c1ccc(C(=O)N2CCC(N3C(=O)CCc4ccccc43)CC2)cc1 [Test Compound 15, 1-[1-{4-[2-(2-Aminophenylthio)-1-imidazolyl]-benzoyl}-4-piperidinyl]-3,4-dihydrocarbostyril] | 800 nM | – |
| NC1CCN(CCCCCOc2ccc(C(=O)N3CCC(N4C(=O)CCc5ccccc54)CC3)cc2)CC1 [Test Compound 7, 1-[1-{4-[5-(4-Amino-1-piperidinyl)pentyloxy)-benzoyl-}-4-piperidinyl]-3,4-dihydrocarbostyril] | 28 nM | – |
| O=C(c1ccc(-c2ncc[nH]2)cc1)N1CCC(N2C(=O)CCc3ccccc32)CC1 [Test Compound 14, 1-{1-[4-(2-Imidazolyl)benzoyl}-4-piperidinyl}-3,4-dihydrocarbostyril] | 1400 nM | – |
| O=C(c1ccc(OCCCCCN2CCC(NC(=O)C(F)(F)F)CC2)cc1)N1CCC(N2C(=O)CCc3ccccc32)CC1 [Test Compound 8, 1-[1-{4-[5-(4-Trifluoroacetylamino-1-piperidinyl)pentyloxy]benzoyl}-4-piperidinyl]-3,4-dihydrocarbostyril] | 63 nM | – |
| CCOC(=O)CC(=O)OCCN(C)CCCCCOc1ccc(C(=O)N2CCC(N3C(=O)CCc4ccccc43)CC2)cc1 [Test Compound 5, 1-[1-{4-[5-[N-Methyl-N-(2-ethoxycarbonylacetyloxyethyl)amino}pentyloxy]benzoyl}-4-piperidinyl]-3,4-dihydrocarbostyril] | 110 nM | – |
| O=C(c1ccc(OCCCCCNCC23CC4CC(CC(C4)C2)C3)cc1)N1CCC(N2C(=O)CCc3ccccc32)CC1 [Test Compound 3, 1-{1-[4-(5-Tricyclo[3.3.1.1^3.7]decanylmethylaminopentyloxy)benzoyl]-4-piperidinyl}-3,4-dihydrocarbostyri] | 100 nM | – |
| O=C(c1ccc([S+]([O-])CCCCCN2CCCC2)cc1)N1CCC(N2C(=O)CCc3ccccc32)CC1 (stereo not drawn) [Test Compound 17, 1-[1-{4-[5-(1-Pyrrolidinyl)pentylsulfinyl)-benzoyl}-4-piperidinyl]-3,4-dihydrocarbostyril] | 3000 nM | – |
| O=C(c1ccc(-c2ccccn2)cc1)N1CCC(N2C(=O)CCc3ccccc32)CC1 [Test Compound 13, 1-{1-[4-(2-Pyridyl)benzoyl}-4-piperidinyl}-3,4-dihydrocarbostyril] | 1200 nM | – |
| O=C(c1ccc(SCCCCCN2CCCC2)cc1)N1CCC(N2C(=O)CCc3ccccc32)CC1 [Test Compound 12, 1-[1-{4-[5-(1-Pyrrolidinyl)pentylthio]-benzoyl}-4-piperidinyl]-3,4-dihydrocarbostyril] | 34 nM | – |
| O=C(c1ccc(OCCCCCN2CCC3(CCCCC3)CC2)cc1)N1CCC(N2C(=O)CCc3ccccc32)CC1 [Test Compound 1, 1-[1-{4-[5-(Cyclohexanespiro-4'-(1-piperidinyl))pentyloxy]benzoyl}-4-piperidinyl]-3,4-dihydrocarbostyril] | 47 nM | – |
